What was measured:
[1] = biological target: T1, Serine protease 1 (Bos taurus, UniProt P00760); assay: Inhibitory activity against trypsin
T1 sequence (P00760 whole entry): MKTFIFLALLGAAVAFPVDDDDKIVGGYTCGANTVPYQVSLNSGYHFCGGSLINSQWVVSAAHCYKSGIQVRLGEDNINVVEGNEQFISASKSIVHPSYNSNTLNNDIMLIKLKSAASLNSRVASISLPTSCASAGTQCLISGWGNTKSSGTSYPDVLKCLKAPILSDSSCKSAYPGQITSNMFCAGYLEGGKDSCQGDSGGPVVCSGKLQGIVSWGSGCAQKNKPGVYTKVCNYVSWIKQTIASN

[2] = biological target: Coagulation factor X (Bos taurus, UniProt P00743); assay: Inhibitory activity against coagulation factor X.
[3] = biological target: T2, Plasminogen (Homo sapiens, UniProt P00747); assay: Inhibitory activity against plasmin
[4] = biological target: Prothrombin (Bos taurus, UniProt P00735)
Description: Inhibitory activity against thrombin

[5] = biological target: Vitamin K-dependent protein C (Homo sapiens, UniProt P04070); assay: Inhibitory activity against Activated protein C
[6] = biological target: Urokinase-type plasminogen activator (Homo sapiens, UniProt P00749); assay: Inhibitory activity against UK.
[7] = biological target: Tissue-type plasminogen activator (Homo sapiens, UniProt P00750); assay: Inhibitory activity against single-chain tissue-type plasminogen activator (sc-tissue plasminogen activator)
[8] = biological target: T3, Coagulation factor XII (Homo sapiens, UniProt P00748); assay: Inhibitory activity against Coagulation factor XII
T3 sequence (P00748 whole entry): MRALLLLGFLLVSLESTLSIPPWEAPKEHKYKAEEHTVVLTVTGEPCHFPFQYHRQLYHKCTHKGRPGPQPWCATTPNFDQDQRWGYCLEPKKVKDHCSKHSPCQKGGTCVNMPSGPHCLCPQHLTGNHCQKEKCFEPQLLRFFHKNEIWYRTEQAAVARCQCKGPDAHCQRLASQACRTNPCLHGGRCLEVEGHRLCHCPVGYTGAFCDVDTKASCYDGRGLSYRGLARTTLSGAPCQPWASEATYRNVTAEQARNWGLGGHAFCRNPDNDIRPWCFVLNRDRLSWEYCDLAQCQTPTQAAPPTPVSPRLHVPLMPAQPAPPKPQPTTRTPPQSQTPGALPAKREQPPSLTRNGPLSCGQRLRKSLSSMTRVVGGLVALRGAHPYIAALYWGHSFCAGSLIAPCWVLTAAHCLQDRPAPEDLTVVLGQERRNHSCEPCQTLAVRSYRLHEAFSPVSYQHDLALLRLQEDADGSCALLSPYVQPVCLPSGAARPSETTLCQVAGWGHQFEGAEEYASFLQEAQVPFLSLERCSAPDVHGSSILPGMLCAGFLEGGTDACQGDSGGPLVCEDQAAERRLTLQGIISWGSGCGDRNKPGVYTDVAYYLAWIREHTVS

[9] = biological target: T2, Plasminogen; assay: Inhibitory activity against Plasmin.
[10] = biological target: Plasma kallikrein (Homo sapiens, UniProt P03952); assay: Inhibitory activity against Kallikrein (PK)
[11] = Concentration for doubling of thrombin time; type: functional, Homo sapiens
[12] = Concentration for doubling of prothrombin time; type: functional, Homo sapiens
[13] = Concentration for doubling of partial thromboplastin time; type: functional, Homo sapiens

T2 sequence (P00747 97-580 limits assumed): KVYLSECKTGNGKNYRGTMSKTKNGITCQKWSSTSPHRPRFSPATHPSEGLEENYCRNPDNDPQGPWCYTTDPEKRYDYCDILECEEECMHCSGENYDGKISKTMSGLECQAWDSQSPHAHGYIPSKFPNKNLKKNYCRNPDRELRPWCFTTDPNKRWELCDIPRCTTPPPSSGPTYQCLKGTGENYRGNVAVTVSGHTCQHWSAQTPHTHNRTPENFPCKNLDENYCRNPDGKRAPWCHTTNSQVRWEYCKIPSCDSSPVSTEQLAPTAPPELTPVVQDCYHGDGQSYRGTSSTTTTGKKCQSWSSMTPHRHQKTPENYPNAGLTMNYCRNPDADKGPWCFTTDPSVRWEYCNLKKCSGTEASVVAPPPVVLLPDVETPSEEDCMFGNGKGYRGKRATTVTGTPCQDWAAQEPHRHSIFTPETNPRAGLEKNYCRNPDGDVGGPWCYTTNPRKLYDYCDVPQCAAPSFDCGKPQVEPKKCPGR
T2 sequence (P00747 581-810 limits assumed): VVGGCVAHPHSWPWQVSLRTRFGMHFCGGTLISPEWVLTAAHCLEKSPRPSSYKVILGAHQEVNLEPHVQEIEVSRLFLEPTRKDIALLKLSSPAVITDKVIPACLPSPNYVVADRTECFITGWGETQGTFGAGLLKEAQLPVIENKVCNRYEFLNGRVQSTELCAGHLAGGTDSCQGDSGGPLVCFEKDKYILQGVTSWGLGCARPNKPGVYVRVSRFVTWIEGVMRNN
Coagulation factor X, sequence (P00743 41-180 limits assumed): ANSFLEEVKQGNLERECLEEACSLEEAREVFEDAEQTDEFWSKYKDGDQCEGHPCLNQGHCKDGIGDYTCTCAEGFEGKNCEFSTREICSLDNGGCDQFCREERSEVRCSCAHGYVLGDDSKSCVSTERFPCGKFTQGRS
Coagulation factor X, sequence (P00743 234-492 limits assumed): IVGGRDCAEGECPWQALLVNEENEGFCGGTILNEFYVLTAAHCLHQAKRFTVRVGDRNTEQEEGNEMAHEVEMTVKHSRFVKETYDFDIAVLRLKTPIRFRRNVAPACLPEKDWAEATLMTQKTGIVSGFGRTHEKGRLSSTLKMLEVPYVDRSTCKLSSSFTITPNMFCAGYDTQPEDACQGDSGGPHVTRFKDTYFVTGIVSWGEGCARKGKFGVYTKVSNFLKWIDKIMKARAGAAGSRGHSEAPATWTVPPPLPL
Vitamin K-dependent protein C, sequence (P04070 43-197 limits assumed): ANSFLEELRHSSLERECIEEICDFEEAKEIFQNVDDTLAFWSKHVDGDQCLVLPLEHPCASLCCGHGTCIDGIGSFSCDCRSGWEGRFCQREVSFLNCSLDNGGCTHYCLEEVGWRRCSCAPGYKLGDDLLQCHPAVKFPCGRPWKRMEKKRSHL
Vitamin K-dependent protein C, sequence (P04070 212-461 limits assumed): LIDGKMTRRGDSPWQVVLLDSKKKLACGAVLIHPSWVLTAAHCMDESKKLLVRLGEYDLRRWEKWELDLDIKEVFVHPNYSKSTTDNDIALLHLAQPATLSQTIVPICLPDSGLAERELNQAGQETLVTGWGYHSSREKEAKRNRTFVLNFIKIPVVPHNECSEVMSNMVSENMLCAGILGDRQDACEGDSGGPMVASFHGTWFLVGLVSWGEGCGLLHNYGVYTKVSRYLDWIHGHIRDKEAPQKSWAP
Plasma kallikrein, sequence (P03952 20-390 limits assumed): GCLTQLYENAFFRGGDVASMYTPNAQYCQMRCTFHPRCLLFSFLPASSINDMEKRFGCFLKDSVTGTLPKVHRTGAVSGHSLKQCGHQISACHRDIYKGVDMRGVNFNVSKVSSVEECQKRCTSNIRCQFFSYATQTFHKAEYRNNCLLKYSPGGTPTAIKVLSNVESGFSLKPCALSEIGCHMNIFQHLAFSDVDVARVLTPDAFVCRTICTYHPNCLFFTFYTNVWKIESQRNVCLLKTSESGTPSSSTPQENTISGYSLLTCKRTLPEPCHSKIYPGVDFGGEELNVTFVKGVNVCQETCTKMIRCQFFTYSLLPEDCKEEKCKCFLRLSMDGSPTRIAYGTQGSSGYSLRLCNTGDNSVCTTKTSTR
Plasma kallikrein, sequence (P03952 391-638 limits assumed): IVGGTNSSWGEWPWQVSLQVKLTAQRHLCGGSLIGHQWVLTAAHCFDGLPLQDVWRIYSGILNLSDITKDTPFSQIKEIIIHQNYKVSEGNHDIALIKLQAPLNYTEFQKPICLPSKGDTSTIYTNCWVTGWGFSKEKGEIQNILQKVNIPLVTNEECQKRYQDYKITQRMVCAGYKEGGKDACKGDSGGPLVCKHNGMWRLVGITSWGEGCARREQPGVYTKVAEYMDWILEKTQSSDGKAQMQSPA
Tissue-type plasminogen activator, sequence (P00750 whole entry): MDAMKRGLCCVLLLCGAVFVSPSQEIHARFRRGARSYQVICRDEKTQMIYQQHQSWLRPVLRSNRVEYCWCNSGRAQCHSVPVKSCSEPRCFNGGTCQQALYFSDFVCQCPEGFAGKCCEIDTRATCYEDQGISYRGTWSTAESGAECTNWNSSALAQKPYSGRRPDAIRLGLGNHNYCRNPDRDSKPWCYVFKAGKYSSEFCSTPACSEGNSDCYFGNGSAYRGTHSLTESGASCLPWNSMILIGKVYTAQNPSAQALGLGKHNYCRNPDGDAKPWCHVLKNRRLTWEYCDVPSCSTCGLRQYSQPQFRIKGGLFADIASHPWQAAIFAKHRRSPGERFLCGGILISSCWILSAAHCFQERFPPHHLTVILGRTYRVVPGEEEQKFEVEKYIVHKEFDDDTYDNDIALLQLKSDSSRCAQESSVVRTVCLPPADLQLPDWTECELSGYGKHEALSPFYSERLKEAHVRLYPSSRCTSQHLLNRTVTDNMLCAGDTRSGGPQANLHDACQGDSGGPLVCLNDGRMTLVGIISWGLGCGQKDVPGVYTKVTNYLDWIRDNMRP

Ki [1] | Ki [2] | Ki [3] | Ki [4] | Structure (SMILES) | further results
0.33 µM |  |  |  | N=C(N)c1cccc(CC(NS(=O)(=O)c2ccc3ccccc3c2)C(=O)N2CCN(S(=O)(=O)c3ccccc3)CC2)c1 (stereo not drawn) | 
 | 7.4 µM | 6.4 µM |  | CC(C)c1cc(C(C)C)c(S(=O)(=O)NC(Cc2cccc(C(=N)N)c2)C(=O)N2CCN(S(C)(=O)=O)CC2)c(C(C)C)c1 (stereo not drawn) | 
0.22 µM | 1.1 µM |  | 0.012 µM | CC1(C)C2CCC1(CCS(=O)(=O)N[C@H](Cc1cccc(C(=N)N)c1)C(=O)N1CCN(S(C)(=O)=O)CC1)C(=O)C2 (stereo partly drawn) | Ki [5]: 33 µM; Ki [6]: 49 µM; Ki [7]: 20 µM; Ki [8]: 55 µM; Ki [9]: 14 µM; Ki [10]: 22 µM
0.18 µM | 18 µM | 11 µM | 0.35 µM | CCCCS(=O)(=O)N1CCN(C(=O)C(Cc2cccc(C(=N)N)c2)NS(=O)(=O)c2ccc3ccccc3c2)CC1 (stereo not drawn) | 
0.19 µM |  |  |  | CCS(=O)(=O)N1CCN(C(=O)C(Cc2cccc(C(=N)N)c2)NS(=O)(=O)c2ccc3ccccc3c2)CC1 (stereo not drawn) | 
 | > 1000 µM | > 1000 µM |  | CS(=O)(=O)N1CCN(C(=O)C(N)Cc2cccc(C(=N)N)c2)CC1 (stereo not drawn) | 
 |  | 14 µM |  | CC(C)(C)c1ccc(S(=O)(=O)NC(Cc2cccc(C(=N)N)c2)C(=O)N2CCN(S(C)(=O)=O)CC2)cc1 (stereo not drawn) | 
0.22 µM | 1.1 µM | 14 µM | 0.012 µM | CC1(C)C2CCC1(CCS(=O)(=O)NC(Cc1cccc(C(=N)N)c1)C(=O)N1CCN(S(C)(=O)=O)CC1)C(=O)C2 (stereo in doubt; 28) | 
0.44 µM | 6.7 µM | 29 µM | 0.031 µM | CC1(C)C2CCC1(CCS(=O)(=O)NC(Cc1cccc(C(=N)N)c1)C(=O)N1CCN(S(C)(=O)=O)CC1)C(=O)C2 (stereo in doubt; 30) | 

The next lines start with the compound.

Structure (SMILES) | Ki [1] | Ki [2] | Ki [3] | Ki [4] | further results
N=C(N)c1cccc(CC(NS(=O)(=O)c2ccc3ccccc3c2)C(=O)N2CCN(C(=O)C3CCCCC3)CC2)c1 (stereo not drawn) | 0.072 µM |  |  |  | 
CN(C)C(=O)N1CCN(C(=O)[C@H](Cc2cccc(C(=N)N)c2)NS(=O)(=O)c2ccc3ccccc3c2)CC1 | 8.5 µM |  |  | 0.35 µM | 
N=C(N)c1cccc(CC(NS(=O)(=O)c2ccc3ccccc3c2)C(=O)N2CCNCC2)c1 (stereo not drawn) |  | 21 µM | 10.2 µM |  | 
COC(=O)N1CCN(C(=O)C(Cc2cccc(C(=N)N)c2)NS(=O)(=O)c2ccc3ccccc3c2)CC1 (stereo not drawn) |  | 77 µM | 2.8 µM |  | 
CN1CCN(C(=O)[C@H](Cc2cccc(C(=N)N)c2)NS(=O)(=O)c2ccc3ccccc3c2)CC1 | 73 µM |  |  | 7.1 µM | 
N=C(N)c1cccc(CC(NS(=O)(=O)c2ccc3ccccc3c2)C(=O)N2CCN(S(=O)(=O)c3ccc4ccccc4c3)CC2)c1 (stereo not drawn) | 0.4 µM |  |  |  | 
CCOC(=O)N1CCN(C(=O)C(Cc2cccc(C(=N)N)c2)NS(=O)(=O)c2ccc3ccccc3c2)CC1 (stereo not drawn) | 0.022 µM | 54 µM | 2.5 µM | 0.67 µM | 
N=C(N)c1cccc(CC(NS(=O)(=O)c2ccc3ccccc3c2)C(=O)N2CCN(C(=O)Oc3ccccc3)CC2)c1 (stereo not drawn) | 0.028 µM | 43 µM | 2.3 µM | 17 µM | 
CS(=O)(=O)N1CCN(C(=O)[C@H](Cc2cccc(C(=N)N)c2)NS(=O)(=O)c2ccc3ccccc3c2)CC1 | 13 µM |  |  |  | 
CCCCCC(=O)N1CCN(C(=O)C(Cc2cccc(C(=N)N)c2)NS(=O)(=O)c2ccc3ccccc3c2)CC1 (stereo not drawn) | 0.064 µM |  |  |  | 
N=C(N)c1cccc(CC(NS(=O)(=O)c2ccc3ccccc3c2)C(=O)N2CCN(C=O)CC2)c1 (stereo not drawn) | 0.22 µM |  |  |  | 
CCCC(=O)N1CCN(C(=O)C(Cc2cccc(C(=N)N)c2)NS(=O)(=O)c2ccc3ccccc3c2)CC1 (stereo not drawn) | 0.049 µM | 80 µM | 8.6 µM | 1.04 µM | 
CC1CCN(C(=O)C(Cc2cccc(C(=N)N)c2)NS(=O)(=O)c2ccc3ccccc3c2)CC1 (stereo not drawn) |  | 41 µM | 5.2 µM |  | 
CC1CNc2c(cccc2S(=O)(=O)N[C@@H](CCCNC(=N)N)C(=O)N2CCC(C)C[C@@H]2C(=O)O)C1 (single isomer, unassigned) [ARGATROBAN] |  |  |  |  | IC50 [11]: 0.062 µM; IC50 [12]: 0.66 µM; IC50 [13]: 0.42 µM

From ChEMBL document CHEMBL1130155, “Synthesis and structure-activity relationships of potent thrombin inhibitors: piperazides of 3-amidinophenylalanine” (J Med Chem, 1997)
